# From paper PMC8222254, “Self-assembly of an anion receptor with metal-dependent kinase inhibition and potent in vitro anti-cancer properties” (Nature Communications, 2021)
# Values joined by “and” are separate entries in the source; they are usually repeats but may differ in a detail not shown here. Equal values may be shown once. Read-outs that look alike come from different tables or passages of the source.
# Legend:
# Experiment in all cases: Chemosensitivity, 96 h continuous exposure, MTT assay
# Assay type in all cases: cell-based, human
# HCT116 p53+/+ = tested on: HCT116 p53+/+
# Excerpt: (§1) All cell lines were purchased from and maintained as monolayers as described by the American Type Culture Collection with the exception of the p53^+/+ and p53^−/− isogenic clones of HCT116 human colorectal adenocarcinoma cells which were a kind gift from Professor Bert Vogelstein[54]. GBM1 cells were established from a primary GBM tumour by Heiko Wurdak and colleagues[32],[33]. Non-cancerous adult brain neural progenitor (NP1) cells were derived from a patient undergoing surgery to treat epilepsy[32],[33]. Cell culture and growth media for NP1 and GBM1 cells were as described[32],[33]. The response of cells following a continuous 96-h exposure to test compounds and platinates was determined using the MTT assay. Potency was recorded as the IC50 and the selectivity index (SI) was defined as the ratio of IC50 values for non-cancer to cancer cell lines with values >1 representing selectivity for cancer cells as opposed to non-cancer cells.
# (§2) All cell lines used were maintained at low passage in antibiotic-free media. HT29, DLD-1, HCT116 p53^+/+ and HCT116 p53^−/− are all colorectal adenocarcinoma cell lines derived from different individuals and harbour different combinations of oncogenic lesions (except for the HCT116 isogenic cancer cell clones that are genetically identical except for p53 status). PSN-1, BxPC-3 and MiaPaCa2 are pancreatic carcinoma cell lines and A549 and H460 are lung carcinoma cell lines. HT29, DLD-1, PSN-1, BxPC-3, A549 and H460 cell lines were cultured in RPMI-1640 growth media (Sigma) containing 2 mM L-glutamine, 1 mM sodium pyruvate and 10% foetal bovine serum (FBS). HCT116 (p53^+/+ and p53^−/−) and MiaPaCa2 cell lines were cultured in Dulbecco’s Modified Eagle’s Medium (Sigma), 2 mM L-glutamine and 10% FBS. The ARPE-19 retinal epithelial non-cancer cell line was cultured in DMEM/F12 media (Gibco), 2 mM L-glutamine, 1 mM sodium pyruvate and 10% FBS. The MCF10A non-cancerous human breast epithelial cell line was cultured in Minimal Essential Media Eagle (Sigma), 2 mM L-glutamine, 1 mM sodium pyruvate, 10% FBS and 1x non-essential amino acids (NEAA). NP1 and GBM1 cells were cultured on plasticware coated with poly-L-ornithine (5 µg/ml) and laminin (2.4 µg/ml)[32],[33]. NP1 cells were grown in DMEM/F12 media (Gibco) supplemented with 5% FBS, 20 ng/ml hFGF, 20 ng/ml rhEGF, 0.5x B-27 supplement (Gibco), 0.5x N-2 supplement (Gibco) and 1x GLUTAMAX (Gibco). GBM1 cells were cultured in Neurobasal media (Gibco) supplemented with 40 ng/ml hFGF, 40 ng/ml rhEGF, 0.5x B-27 supplement (Gibco) and 0.5x N-2 supplement (Gibco).
# (§3) [L2(Metal)3]^6+ and all the other self-assembling complexes were freshly formed by adding DMSO to individual components and mixing together by pipetting. These were then further diluted in cell culture media such that the final DMSO concentration that cells were exposed to was 0.2% (vehicle control). Cisplatin, oxaliplatin and carboplatin were dissolved in phosphate buffered saline. Cell lines were seeded into 96 well plates at 2 × 10^3 cells per well and incubated overnight at 37 °C. GBM1 cancer stem-like cells were seeded at 3 × 10^3 cells per well and NP1 neural progenitors were seeded at 1.5 × 10^3 cells per well. The following day, media was removed and replaced with fresh media containing test compounds at a range of concentrations. Cells were incubated with test compounds for a further 96 h after which the media was removed and replaced with fresh media (200 μl/well). MTT was added (20 μl at 5 mg/ml) and cells were incubated for a further 4 h. Media and MTT were removed and formazan crystals were dissolved in 150 μl of DMSO and the absorbance of the resulting solution determined at 540 nm. Dose response curves were constructed, and the concentration required to reduce cell growth by 50% (IC50) determined.
# DLD-1 = tested on: DLD-1
# Excerpt: as §1, §2, §3
# HT-29 = tested on: HT-29
# Excerpt: as §1, §2, §3
# A549 = tested on: A549
# Excerpt: as §1, §2, §3
# PSN1 = tested on: PSN1
# Excerpt: as §1, §2, §3
# BxPC3 = tested on: BxPC3
# Excerpt: as §1, §2, §3
# HCT116 p53-/- = tested on: HCT116 p53-/-
# Excerpt: as §1, §2, §3
smiles,measurement,setting,value
O=P([O-])([O-])[O-].[Cu+2].[Cu+2].[Cu+2].c1ccc(-c2csc(NCCN(CCNc3nc(-c4ccccn4)cs3)CCNc3nc(-c4ccccn4)cs3)n2)nc1.c1ccc(-c2csc(NCCN(CCNc3nc(-c4ccccn4)cs3)CCNc3nc(-c4ccccn4)cs3)n2)nc1 [[L2Cu3(PO4)]3+],IC50,"HCT116 p53+/+; HCT116 p53+/+, mean of replicates, read-out: Mean IC50",3390 nM
same,IC50,"HCT116 p53+/+; HCT116 p53+/+, read-out: Mean IC50 values",3390 nM
same,IC50,"HCT116 p53+/+; HCT116 p53+/+, single replicate, read-out: IC50 values for each replicate",5270 nM and 3750 nM and 2150 nM and 2080 nM and 1850 nM
same,Selectivity index (ARPE19),HCT116 p53+/+; IC50 ARPE-19 / IC50 HCT116 p53+/+,48.25
same,Selectivity index (MCF10A),HCT116 p53+/+; IC50 MCF10A / IC50 HCT116 p53+/+,14.55
same,"Relative potency (+ anion to no anion), Ratio + anion:no anion","HCT116 p53+/+; ratio of IC50, HCT116 p53+/+",6.84
same,"Selectivity indices relative to ARPE-19, Ratio + anion:no anion","HCT116 p53+/+; ratio of SI (ARPE-19), HCT116 p53+/+",0.455
same,"Selectivity indices relative to MCF10A, Ratio + anion:no anion","HCT116 p53+/+; ratio of SI (MCF 10A), HCT116 p53+/+",0.150
same,IC50,"DLD-1; DLD-1, mean of replicates, read-out: Mean IC50",637 nM
same,IC50,"DLD-1; DLD-1, read-out: Mean IC50 values",637 nM
same,IC50,"DLD-1; DLD-1, single replicate, read-out: IC50 values for each replicate",613 nM and 668 nM and 654 nM
same,Selectivity index (ARPE19),DLD-1; IC50 ARPE-19 / IC50 DLD-1,257.10
same,Selectivity index (MCF10A),DLD-1; IC50 MCF10A / IC50 DLD-1,77.52
same,"Relative potency (+ anion to no anion), Ratio + anion:no anion","DLD-1; ratio of IC50, DLD-1",4.83
same,"Selectivity indices relative to ARPE-19, Ratio + anion:no anion","DLD-1; ratio of SI (ARPE-19), DLD-1",0.645
same,"Selectivity indices relative to MCF10A, Ratio + anion:no anion","DLD-1; ratio of SI (MCF 10A), DLD-1",0.212
same,IC50,"HT-29; HT29, mean of replicates, read-out: Mean IC50",326 nM
same,IC50,"HT-29; HT29, read-out: Mean IC50 values",326 nM
same,IC50,"HT-29; HT-29, single replicate, read-out: IC50 values for each replicate",224 nM and 262 nM and 594 nM and 323 nM and 229 nM
same,Selectivity index (ARPE19),HT-29; IC50 ARPE-19 / IC50 HT29,502.36
same,Selectivity index (MCF10A),HT-29; IC50 MCF10A / IC50 HT29,151.48
same,"Relative potency (+ anion to no anion), Ratio + anion:no anion","HT-29; ratio of IC50, HT29",1.52
same,"Selectivity indices relative to ARPE-19, Ratio + anion:no anion","HT-29; ratio of SI (ARPE-19), HT29",2.043
same,"Selectivity indices relative to MCF10A, Ratio + anion:no anion","HT-29; ratio of SI (MCF 10A), HT29",0.672
same,IC50,"A549; A549, mean of replicates, read-out: Mean IC50",1220 nM
same,IC50,"A549; A549, read-out: Mean IC50 values",1220 nM
same,Selectivity index (ARPE19),A549; IC50 ARPE-19 / IC50 A549,134.46
same,Selectivity index (MCF10A),A549; IC50 MCF10A / IC50 A549,40.54
same,"Relative potency (+ anion to no anion), Ratio + anion:no anion","A549; ratio of IC50, A549",5.23
same,"Selectivity indices relative to ARPE-19, Ratio + anion:no anion","A549; ratio of SI (ARPE-19), A549",0.595
same,"Selectivity indices relative to MCF10A, Ratio + anion:no anion","A549; ratio of SI (MCF 10A), A549",0.196
same,Selectivity index (ARPE19),PSN1; IC50 ARPE-19 / IC50 PSN1,9.29
same,Selectivity index (MCF10A),PSN1; IC50 MCF10A / IC50 PSN1,2.80
same,IC50,"PSN1; PSN1, mean of replicates, read-out: Mean IC50",17600 nM
same,IC50,"PSN1; PSN1, read-out: Mean IC50 values",17600 nM
same,IC50,"PSN1; PSN1, single replicate, read-out: IC50 values for each replicate",18400 nM and 18600 nM and 17500 nM and 15900 nM
same,"Relative potency (+ anion to no anion), Ratio + anion:no anion","PSN1; ratio of IC50, PSN1",2.73
same,"Selectivity indices relative to ARPE-19, Ratio + anion:no anion","PSN1; ratio of SI (ARPE-19), PSN1",1.138
same,"Selectivity indices relative to MCF10A, Ratio + anion:no anion","PSN1; ratio of SI (MCF 10A), PSN1",0.374
same,IC50,"BxPC3; BXPC3, mean of replicates, read-out: Mean IC50",1680 nM
same,IC50,"BxPC3; BXPC3, read-out: Mean IC50 values",1680 nM
same,IC50,"BxPC3; BXPC3, single replicate, read-out: IC50 values for each replicate",704 nM and 1940 nM and 2090 nM and 2240 nM and 1430 nM
same,Selectivity index (ARPE19),BxPC3; IC50 ARPE-19 / IC50 BXPC3,97.37
same,Selectivity index (MCF10A),BxPC3; IC50 MCF10A / IC50 BXPC3,29.36
same,"Relative potency (+ anion to no anion), Ratio + anion:no anion","BxPC3; ratio of IC50, BXPC3",5.74
same,"Selectivity indices relative to ARPE-19, Ratio + anion:no anion","BxPC3; ratio of SI (ARPE-19), BXPC3",0.542
same,"Selectivity indices relative to MCF10A, Ratio + anion:no anion","BxPC3; ratio of SI (MCF 10A), BXPC3",0.178
same,IC50,"HCT116 p53-/-; HCT116 p53-/-, mean of replicates, read-out: Mean IC50",388 nM
same,IC50,"HCT116 p53-/-; HCT116 p53-/-, read-out: Mean IC50 values",388 nM
same,IC50,"HCT116 p53-/-; HCT116 p53-/-, single replicate, read-out: IC50 values for each replicate",686 nM and 542 nM and 264 nM and 205 nM and 242 nM
same,Selectivity index (ARPE19),HCT116 p53-/-; IC50 ARPE-19 / IC50 HCT116 p53-/-,422.09
same,Selectivity index (MCF10A),HCT116 p53-/-; IC50 MCF10A / IC50 HCT116 p53-/-,127.27
same,"Relative potency (+ anion to no anion), Ratio + anion:no anion","HCT116 p53-/-; ratio of IC50, HCT116 p53-/-",2.83
same,"Selectivity indices relative to ARPE-19, Ratio + anion:no anion","HCT116 p53-/-; ratio of SI (ARPE-19), HCT116 p53-/-",1.099
same,"Selectivity indices relative to MCF10A, Ratio + anion:no anion","HCT116 p53-/-; ratio of SI (MCF 10A), HCT116 p53-/-",0.361
